Reference: US20040224880A1, “Regulation of gastric acid secretion by inwardly rectifying k+ channels” (Beth Israel Deaconess Medical Center, Inc., priority 2001, published 2004)
“Also recorded” adds a separate entry of the source. Where two headings read alike, the source gives them in different places. One block for each molecule: values may come before it.

Legend:
bullfrog gastric mucosa [1] = assay: Acid secretion of frog (bullfrog) gastric mucosa stimulated with histamine/carbachol or forskolin; format: cell-based; conditions: for effect of 0.5 and 1 mM barium on acid secretion (in words): up to 3 hr; for acid secretion with 10 mM imidazole, 3 hr: 10 mM nutrient imidazole (5 mM Iz), pH 7.1, 3 hr; for Rate of decline in acid secretion: from the linear portion of the inhibition curve, 1 mM cimetidine, 10 mM NH4Cl, 2 mM KCN
bullfrog gastric mucosa [2] = test system: bullfrog gastric mucosa
bullfrog gastric mucosa [3] = format: cell-based
Experimental: FIG. 1B Electrophysiology in the bullfrog gastric mucosa. […] Removal of NH4Cl was followed by a complete recovery of R within 30 min. Data were obtained from 21 experiments and are expressed as the mean±SEM.
FIG. 1C Electrophysiology in the bullfrog gastric mucosa. […] Removal of NH4Cl was followed by a complete recovery of PD within 30 min. Data were obtained from 21 experiments and are expressed as the mean±SEM.

[4] = blocker first (0.5-5 mM barium, 1-10 mM TEA, 10-100 μM tolbutamide, 10 μM clotrimazole, imidazole, 100 μM bumetamide, amiloride, 1 mM oubain, 0.3 mM DIDS), then 10 mM NH4Cl, within 30 min
[5] = blocker first, then 10 mM NH4Cl, within 30 min
[6] = nutrient solution, vs control tissues, imidazole 100 μM Iz (200 μM nutrient), TEA 1-10 mM, tolbutamide 10-100 μM, clotrimazole 10 μM, bumetamide 100 μM, amiloride, oubain 1 mM, DIDS 0.3 mM, KCN, KCl 2 mM, methylamine
[7] = 10 mM NH4Cl within 30 min, 0.5, 1, 5 mM barium, TEA, tolbutamide, clotrimazole, vs control tissues
[8] = 10 mM NH4Cl within 30 min, barium, TEA, tolbutamide, clotrimazole, vs control tissues
[9] = blocker first (0.5 and 1 mM barium, TEA, tolbutamide, clotrimazole), then 10 mM NH4Cl, within 30 min
[10] = Time 90″: after 90 min stimulation with histamine/carbachol, start of incubation with 1 mM cimetidine, 0.3 mM omeprazole, 10 mM NH4Cl or 2 mM KCN
[11] = Time 120″, 1 mM cimetidine or 0.3 mM omeprazole added at 90 min
[12] = Time 150″, 1 mM cimetidine or 0.3 mM omeprazole added at 90 min

SMILES: N=C(N)NC(=O)c1nc(Cl)c(N)nc1N [amiloride]
acid secretion after 10 mM NH4Cl added to tissues treated with the blocker (bullfrog gastric mucosa [1]; [4]): 0.188±0.140 μEq/hr cm^2 | effect of 10 mM NH4Cl on acid secretion of tissues treated with the blocker (in words) (bullfrog gastric mucosa [1]; [5]): declined | effect on stimulated acid secretion (in words) (bullfrog gastric mucosa [1]; [6]): unchanged; also recorded: little effect on stimulated acid secretion; also recorded: no significant reduction in acid secretion

SMILES: CN [methylamine]
flux rate of methylamine in inhibited tissues (bullfrog gastric mucosa [2]): 0.601±0.114 μM/h cm^2 | flux rate of methylamine in stimulated tissues (bullfrog gastric mucosa [2]): 2.25±0.088 μM/h cm^2 | acid secretion after methylamine washed from the nutrient solution (bullfrog gastric mucosa [1]): 3.74±0.41 μEq/hr cm^2 | acid secretion after washout, % of the starting level (bullfrog gastric mucosa [1]): 60% | acid secretion with methylamine (bullfrog gastric mucosa [1]): 0.081±0.056 μEq/hr cm^2 | effect on stimulated acid secretion (in words) (bullfrog gastric mucosa [1]): rapidly inhibits acid secretion | least (minimum) concentration required for complete inhibition of acid secretion within 30 min (bullfrog gastric mucosa [1]): 50 mM

SMILES: C[C@@H]1O[C@@H](O[C@H]2C[C@@H](O)[C@]3(CO)[C@H]4[C@H](O)C[C@]5(C)[C@@H](C6=CC(=O)OC6)CC[C@]5(O)[C@@H]4CC[C@]3(O)C2)[C@H](O)[C@H](O)[C@H]1O [oubain]
effect on stimulated acid secretion (in words) (bullfrog gastric mucosa [1]): unchanged; also recorded: little effect on stimulated acid secretion; also recorded: no significant reduction in acid secretion | acid secretion after 10 mM NH4Cl added to tissues treated with the blocker (bullfrog gastric mucosa [1]; [4]): 0 μEq/hr cm^2 | effect of 10 mM NH4Cl on acid secretion of tissues treated with the blocker (in words) (bullfrog gastric mucosa [1]; [5]): declined

SMILES: [Ba] [barium]
effect on resistance (R) of stimulated tissues (in words) (bullfrog gastric mucosa [3]; [7]): increased significantly; also recorded: significant increase in R | effect on potential difference (PD) of stimulated tissues (in words) (bullfrog gastric mucosa [3]; [8]): unaffected; also recorded: little to no influence on PD; also recorded: not significantly different from that of control tissues | R after 10 mM NH4Cl added to tissues treated with the blocker (in words) (bullfrog gastric mucosa [3]; [9]): R increased similar to that of control tissues; also recorded: increase in R | PD after 10 mM NH4Cl added to tissues treated with the blocker (in words) (bullfrog gastric mucosa [3]; [5]): PD increased in all groups; also recorded: increase in PD | acid secretion with 0.5 mM barium (bullfrog gastric mucosa [1]; 0.5 mM barium, 3 hr (180 min), from 5.23±0.29): 4.12±0.38 μEq/hr cm^2 | acid secretion with 1 mM barium (bullfrog gastric mucosa [1]; 1 mM barium, 3 hr (180 min), from 5.35±0.22): 4.20±0.21 μEq/hr cm^2 | acid secretion with 5 mM barium (bullfrog gastric mucosa [1]; 5 mM barium, 3 hr (180 min), from 5.19±0.22): 2.89±0.33 μEq/hr cm^2 | reduction of acid secretion compared to control tissues (bullfrog gastric mucosa [1]; 5 mM barium, by 3 hr): 44% | effect of 5 mM barium on acid secretion (in words) (bullfrog gastric mucosa [1]; 5 mM barium, vs control tissues): significantly (P=0.0085) different from control tissues; also recorded: significantly different from that of control tissues | effect of 0.5 and 1 mM barium on acid secretion (in words) (bullfrog gastric mucosa [1]; vs control tissues): not different from that of control tissues; also recorded: inhibition of acid secretion does not occur | effect of 0.5 and 1 mM barium on acid secretion (in words) (bullfrog gastric mucosa [1]; vs control tissues, listed as Barium): not significantly different from that of control tissues | acid secretion after 10 mM NH4Cl added to tissues treated with the blocker (bullfrog gastric mucosa [1]; [4]): 0 μEq/hr cm^2 | effect of 10 mM NH4Cl on acid secretion of tissues treated with the blocker (in words) (bullfrog gastric mucosa [1]; [5]): abolished

SMILES: c1c[nH]cn1 [imidazole]
acid secretion with 100 μM imidazole (bullfrog gastric mucosa [1]; 100 μM Iz, 3 hr (180 min), from 5.47±0.26): 4.86±0.29 μEq/hr cm^2 | acid secretion with 10 mM imidazole, 30 min (bullfrog gastric mucosa [1]; 10 mM imidazole (5 mM Iz, 5 mM Iz+), 30 min, from 6.60±0.43): 4.60±0.43 μEq/hr cm^2 | acid secretion with 10 mM imidazole, 3 hr (bullfrog gastric mucosa [1]; from 6.60±0.43): 4.06±0.46 μEq/hr cm^2 | acid secretion with 10 mM imidazole, 3 hr (bullfrog gastric mucosa [1]; from 6.60±0.43, listed as Iz): 4.03 μEq/hr cm^2 | acid secretion after 10 mM NH4Cl added to tissues treated with the blocker (bullfrog gastric mucosa [1]; [4]): 0±0 μEq/hr cm^2 | effect of 10 mM NH4Cl on acid secretion of tissues treated with the blocker (in words) (bullfrog gastric mucosa [1]; [5]): inhibited completely; also recorded: inhibited acid secretion immediately | effect on stimulated acid secretion (in words) (bullfrog gastric mucosa [1]; [6]): no effect on acid secretion; also recorded: not significantly different from that of control tissues | effect on stimulated acid secretion (in words) (bullfrog gastric mucosa [1]; nutrient solution, vs control tissues, imidazole 100 μM Iz (200 μM nutrient), TEA 1-10 mM, tolbutamide 10-100 μM, clotrimazole 10 μM, bumetamide 100 μM, amiloride, oubain 1 mM, DIDS 0.3 mM, KCN, KCl 2 mM, methylamine, listed as Iz): not significantly different from that of control tissues

SMILES: [Cl-].[K+] [KCl, Potassium chloride]
effect on stimulated acid secretion (in words) (bullfrog gastric mucosa [1]): little effect on acid secretion

SMILES: O=S(=O)(O)c1cc(N=C=S)ccc1C=Cc1ccc(N=C=S)cc1S(=O)(=O)O [DIDS]
acid secretion with DIDS (bullfrog gastric mucosa [1]; 0.3 mM DIDS, 60 min, from 5.25±0.12): 2.29±0.18 μEq/hr cm^2 | acid secretion after 10 mM NH4Cl added to tissues treated with the blocker (bullfrog gastric mucosa [1]; [4]): 0 μEq/hr cm^2 | effect of 10 mM NH4Cl on acid secretion of tissues treated with the blocker (in words) (bullfrog gastric mucosa [1]; [5]): declined; also recorded: immediately reduced acid secretion to zero | effect on stimulated acid secretion (in words) (bullfrog gastric mucosa [1]; [6]): approximately one half of the initial rate; also recorded: partially, but not completely, inhibited

SMILES: Clc1ccccc1C(c1ccccc1)(c1ccccc1)n1ccnc1 [clotrimazole]
effect on resistance (R) of stimulated tissues (in words) (bullfrog gastric mucosa [3]; [7]): no effect; also recorded: not significantly different from that of control tissues | effect on potential difference (PD) of stimulated tissues (in words) (bullfrog gastric mucosa [3]; [8]): no effect | R after 10 mM NH4Cl added to tissues treated with the blocker (in words) (bullfrog gastric mucosa [3]; [9]): increase in R | PD after 10 mM NH4Cl added to tissues treated with the blocker (in words) (bullfrog gastric mucosa [3]; [5]): increase in PD | acid secretion after 10 mM NH4Cl added to tissues treated with the blocker (bullfrog gastric mucosa [1]; [4]): 0 μEq/hr cm^2 | effect of 10 mM NH4Cl on acid secretion of tissues treated with the blocker (in words) (bullfrog gastric mucosa [1]; [5]): abolished | effect on stimulated acid secretion (in words) (bullfrog gastric mucosa [1]; [6]): no effect on stimulated acid secretion; also recorded: no significant decline

SMILES: CC[N+](CC)(CC)CC [TEA, tetraethylammonium]
PD after 10 mM NH4Cl added to tissues treated with the blocker (in words) (bullfrog gastric mucosa [3]): increase in PD | R after 10 mM NH4Cl added to tissues treated with the blocker (in words) (bullfrog gastric mucosa [3]): R increased in all tissues; also recorded: increase in R | effect on potential difference (PD) of stimulated tissues (in words) (bullfrog gastric mucosa [3]): no effect | effect on resistance (R) of stimulated tissues (in words) (bullfrog gastric mucosa [3]): no effect on R; also recorded: not significantly different from that of control tissues | acid secretion after 10 mM NH4Cl added to tissues treated with the blocker (bullfrog gastric mucosa [1]): 0 μEq/hr cm^2 | effect of 10 mM NH4Cl on acid secretion of tissues treated with the blocker (in words) (bullfrog gastric mucosa [1]): abolished | effect on stimulated acid secretion (in words) (bullfrog gastric mucosa [1]): no effect on stimulated acid secretion; also recorded: no significant decline

SMILES: CN/C(=N/CCSCc1nc[nH]c1C)NC#N [Cimetidine, cimetidine]
Acid secretion (bullfrog gastric mucosa [1]; [10]): 5.59 ± 0.13 μEq/h · cm^2 | Acid secretion (bullfrog gastric mucosa [1]; [11]): 3.51 ± 0.21 μEq/h · cm^2 | Acid secretion (bullfrog gastric mucosa [1]; [12]): 0.83 ± 0.22 μEq/h · cm^2 | Rate of decline in acid secretion (bullfrog gastric mucosa [1]; 0.3 mM omeprazole): −0.07935 (μEq/h · cm^2)/min

SMILES: CCCCNC(=O)NS(=O)(=O)c1ccc(C)cc1 [tolbutamide]
effect on resistance (R) of stimulated tissues (in words) (bullfrog gastric mucosa [3]; [7]): no effect; also recorded: not significantly different from that of control tissues | effect on potential difference (PD) of stimulated tissues (in words) (bullfrog gastric mucosa [3]; [8]): no effect | R after 10 mM NH4Cl added to tissues treated with the blocker (in words) (bullfrog gastric mucosa [3]; [9]): increase in R | PD after 10 mM NH4Cl added to tissues treated with the blocker (in words) (bullfrog gastric mucosa [3]; [5]): increase in PD | acid secretion after 10 mM NH4Cl added to tissues treated with the blocker (bullfrog gastric mucosa [1]; [4]): 0 μEq/hr cm^2 | effect of 10 mM NH4Cl on acid secretion of tissues treated with the blocker (in words) (bullfrog gastric mucosa [1]; [5]): abolished | effect on stimulated acid secretion (in words) (bullfrog gastric mucosa [1]; [6]): no effect on stimulated acid secretion; also recorded: no significant decline

NH3 lost from the nutrient solution (bullfrog gastric mucosa [2]; 10 mM): 61.46 µM | luminal NH3 concentration after 30 min (bullfrog gastric mucosa [2]; 30 min, 10 mM): 0.00133 ± 0.00133 µM | nutrient NH3 concentration at 30 min (bullfrog gastric mucosa [2]; 30 min, 10 mM): 538.3±6.7
SMILES: N [ammonia (NH3), ammonia]
concentration of ammonia (NH3) that completely inhibits acid secretion within 30 min (bullfrog gastric mucosa [1]; NH3 present in 10 mM NH4Cl at pH 7.2, basolateral exposure): 92.5 µM

SMILES: COc1ccc2[nH]c([S+]([O-])Cc3ncc(C)c(OC)c3C)nc2c1 (stereo not drawn) [Omeprazole, omeprazole]
Acid secretion (bullfrog gastric mucosa [1]; [10]): 5.45 ± 0.30 μEq/h · cm^2 | Acid secretion (bullfrog gastric mucosa [1]; [11]): 2.03 ± 0.21 μEq/h · cm^2 | Acid secretion (bullfrog gastric mucosa [1]; [12]): 0.30 ± 0.10 μEq/h · cm^2 | Rate of decline in acid secretion (bullfrog gastric mucosa [1]; 0.3 mM omeprazole): −0.09034 (μEq/h · cm^2)/min

SMILES: CCCCNc1cc(C(=O)O)cc(S(N)(=O)=O)c1Oc1ccccc1 [bumetamide]
acid secretion after 10 mM NH4Cl added to tissues treated with the blocker (bullfrog gastric mucosa [1]; [4]): 0.645±0.278 μEq/hr cm^2 | effect of 10 mM NH4Cl on acid secretion of tissues treated with the blocker (in words) (bullfrog gastric mucosa [1]; [5]): declined | effect on stimulated acid secretion (in words) (bullfrog gastric mucosa [1]; [6]): unchanged; also recorded: little effect on stimulated acid secretion; also recorded: no significant reduction in acid secretion
